Measured values published in US10118930B2, “Piperidinylpyrazolopyrimidinones and their use” (BAYER PHARMA AKTIENGESELLSCHAFT, priority 2015, dated 2018).
pIC50: −log10 of the molar value. Counter-ions that a name gives are not always drawn.

System: clot lysis (fibrinolysis) in diluted human citrated plasma, tPA-induced
Experiment: Plasma-based clot lysis assay (5%)
Assay type: biochemical
Conditions: human citrated platelet-poor plasma 5%, fibrinogen 3 μM, CaCl2 10 mM, tPA 0.2 nM, 37° C., OD at 405 nm
Method in brief: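 Compounds added to 5% platelet-poor citrated human plasma with 3 μM fibrinogen in 20 mM HEPES, 150 mM NaCl, 0.01% Brij, pH 7. Clotting and lysis started with 10 mM CaCl2 and 0.2 nM tPA at 37° C. IC50 derived by comparing time courses with a blank control reaction.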

Row | SMILES | pIC50
1 | COc1cccc(-c2cnn3c(C4CCNCC4)cc(=O)[nH]c23)c1 [Example 60, 3-(3-Methoxyphenyl)-7-(piperidin-4-yl)pyrazolo[1,5-a]pyrimidin-5(4H)-one hydrochloride] | 7.89
2 | Cc1nn2c(C3CCNCC3)cc(=O)[nH]c2c1C(=O)N1CCC2CCCCC2C1 (centres unmarked) [Example 405, 2-methyl-3-(octahydro-isoquinolin-2(1H)-ylcarbonyl)-7-(piperidin-4-yl) pyrazolo[1,5-a] pyrimidin-5(4H)-one hydrochloride] | 7.43
3 | Cc1nn2c(C3CCNCC3)cc(=O)[nH]c2c1-c1nnc(C(C)(C)C)o1 [Example 338, 3-(5-tert-butyl-1,3,4-oxadiazol-2-yl)-2-methyl-7-(piperidin-4-yl)pyrazolo[1,5-a]pyrimidin-5(4H)-one hydrochloride] | 7.96
4 | CCCCCCc1nc(-c2cnn3c(C4CCNCC4)cc(=O)[nH]c23)no1 [Example 379, 3-(5-Hexyl-1,2,4-oxadiazol-3-yl)-7-(piperidin-4-yl)pyrazolo[1,5-a]pyrimidin-5(4H)-one hydrochloride] | 7.66
5 | COc1ccc(-c2cnn3c(C4CCNCC4)cc(=O)[nH]c23)cn1 [Example 69, 3-(6-Methoxypyridin-3-yl)-7-(piperidin-4-yl)pyrazolo[1,5-a]pyrimidin-5 (4H)-one] | 7.72
6 | O=c1cc(C2CCNCC2)n2ncc(-c3ccc(F)c(Cl)c3)c2[nH]1 [Example 72, 3-(3-Chloro-4-fluorophenyl)-7-(piperidin-4-yl)pyrazolo[1,5-a]pyrimidin-5(4H)-one hydrochloride] | 7.19
7 | O=c1cc(C2CCNCC2)n2ncc(-c3nc(-c4cccc(Cl)c4Cl)no3)c2[nH]1 [Example 143, 3-[3-(2,3-Dichlorophenyl)-1,2,4-oxadiazol-5-yl]-7-(piperidin-4-yl)pyrazolo[1,5-a]pyrimidin-5 (4H)-one hydrochloride] | 7.39
8 | O=c1cc(C2CCNCC2)n2ncc(-c3nnc(C4CC4)o3)c2[nH]1 [Example 174, 3-(5-cyclopropyl-1,3,4-oxadiazol-2-yl)-7-(piperidin-4-yl)pyrazolo[1,5-a]pyrimidin-5 (4H)-one hydrochloride] | 7.47
9 | Cc1c(Cl)cccc1-c1noc(-c2cnn3c(C4CCNCC4)cc(=O)[nH]c23)n1 [Example 140, 3-[3-(3-Chloro-2-methylphenyl)-1,2,4-oxadiazol-5-yl]-7-(piperidin-4-yl)pyrazolo[1,5-a]pyrimidin-5(4H)-one hydrochloride] | 6.89
10 | Cc1nn2c(C3CCNCC3)cc(=O)[nH]c2c1C(=O)N1CCSCC1 [Example 397, 2-methyl-7-(piperidin-4-yl)-3-(thiomorpholin-4-ylcarbonyl)pyrazolo [1,5-a]pyrimidin-5(4H)-one hydrochloride] | 7.44
11 | O=C(c1cnn2c(C3CCNCC3)cc(=O)[nH]c12)C1CC1 [Example 453, 3-(cyclopropylcarbonyl)-7-(piperidin-4-yl)pyrazolo[1,5-a]pyrimidin-5(4H)-one hydrochloride] | 8.10
12 | O=c1cc(C2CCNCC2)n2ncc(-c3nnc(CCN4CCOCC4)o3)c2[nH]1 [Example 282, 3-{5-[2-(morpholin-4-yl)ethyl]-1,3,4-oxadiazol-2-yl}-7-(piperidin-4-yl)pyrazolo[1,5-a]pyrimidin-5(4H)-one hydrochloride] | 7.47
13 | O=c1cc(C2CCNCC2)n2ncc(-c3nc(-c4cnccc4C(F)(F)F)no3)c2[nH]1 [Example 189, 7-(piperidin-4-yl)-3-{3-[4-(trifluoromethyl)pyridin-3-yl]-1,2,4-oxadiazol-5-yl}pyrazolo[1,5-a]pyrimidin-5(4H)-one hydrochloride] | 7.42
14 | CCN(C)C(=O)c1c(C)nn2c(C3CCNCC3)cc(=O)[nH]c12 [Example 424, N-ethyl-N,2-dimethyl-5-oxo-7-(piperidin-4-yl)-4,5-dihydro-pyrazolo[1,5-a] pyrimidine-3-carboxamide hydrochloride] | 7.11
15 | Cc1ccc(-c2noc(-c3c(C)nn4c(C5CCNCC5)cc(=O)[nH]c34)n2)cc1 [Example 306, 2-methyl-3-[3-(4-methylphenyl)-1,2,4-oxadiazol-5-yl]-7-(piperidin-4-yl)pyrazolo[1,5-a]pyrimidin-5(4H)-one hydrochloride] | 7.96
16 | CN1CCC(Cc2noc(-c3cnn4c(C5CCNCC5)cc(=O)[nH]c34)n2)CC1 [Example 203, 3-{3-[(1-methylpiperidin-4-yl)methyl]-1,2,4-oxadiazol-5-yl}-7-(piperidin-4-yl)pyrazolo[1,5-a]pyrimidin-5(4H)-one hydrochloride] | 7.47
17 | Cc1nn2c(C3CCNCC3)cc(=O)[nH]c2c1C(=O)N1CCCC1 [Example 415, 2-methyl-7-(piperidin-4-yl)-3-(pyrrolidin-1-ylcarbonyl) pyrazolo[1,5-a] pyrimidin-5(4H)-one hydrochloride] | 7.21
18 | O=c1cc(C2CCNCC2)n2ncc(-c3noc(-c4cccc(Cl)c4F)n3)c2[nH]1 [Example 218, 3-[5-(3-chloro-2-fluorophenyl)-1,2,4-oxadiazol-3-yl]-7-(piperidin-4-yl)pyrazolo[1,5-a]pyrimidin-5(4H)-one hydrochloride] | 7.27

Row | SMILES | pIC50
19 | COc1ccc(C(C)(C)c2nc(-c3cnn4c(C5CCNCC5)cc(=O)[nH]c34)no2)cc1 [Example 242, 3-{5-[2-(4-methoxyphenyl)propan-2-yl]-1,2,4-oxadiazol-3-yl}-7-(piperidin-4-yl)pyrazolo[1,5-a]pyrimidin-5(4H)-one hydrochloride] | 7.70
20 | Cc1nn2c(C3CCNCC3)cc(=O)[nH]c2c1C(=O)N1CCCC(C)(C)C1 [Example 420, 3-[(3,3-dimethyl-piperidin-1-yl)carbonyl]-2-methyl-7-(piperidin-4-yl) pyrazolo[1,5-a] pyrimidin-5(4H)-one hydrochloride] | 7.33
21 | O=C(NCC1CCCC1)c1cnn2c(C3CCNCC3)cc(=O)[nH]c12 [Example 77] | 7.21
22 | O=c1cc(C2CCNCC2)n2ncc(-c3nc(-c4ccc(F)cc4F)no3)c2[nH]1 [Example 158, 3-[3-(2,4-difluorophenyl)-1,2,4-oxadiazol-5-yl]-7-(piperidin-4-yl)pyrazolo[1,5-a]pyrimidin-5(4H)-one hydrochloride] | 7.42
23 | O=c1cc(C2CCNCC2)n2ncc(-c3noc(C=C4CCCC4)n3)c2[nH]1 [Example 384, 3-[5-(Cyclopentylidenemethyl)-1,2,4-oxadiazol-3-yl]-7-(piperidin-4-yl)pyrazolo[1,5-a]pyrimidin-5 (4H)-one hydrochloride] | 7.59
24 | Cc1nn2c(C3CCNCC3)cc(=O)[nH]c2c1C(=O)N(C)C [Example 319, N,N,2-trimethyl-5-oxo-7-(piperidin-4-yl)-4,5-dihydropyrazolo[1,5-a]pyrimidine-3-carboxamide hydrochloride] | 7.12
25 | Cc1ccc(-c2noc(-c3cnn4c(C5CCNCC5)cc(=O)[nH]c34)n2)c(C)c1 [Example 127, 3-[3-(2,4-Dimethylphenyl)-1,2,4-oxadiazol-5-yl]-7-(piperidin-4-yl)pyrazolo[1,5-a]pyrimidin-5(4H)-one hydrochloride] | 7.21
26 | CC(C)=Cc1nc(-c2cnn3c(C4CCNCC4)cc(=O)[nH]c23)no1 [Example 383, 3-[5-(2-Methylprop-1-en-1-yl)-1,2,4-oxadiazol-3-yl]-7-(piperidin-4-yl)pyrazolo[1,5-a]pyrimidin-5 (4H)-one hydrochloride] | 7.82
27 | O=c1cc(C2CCNCC2)n2ncc(-c3nc(-c4cc(C(F)(F)F)ccn4)no3)c2[nH]1 [Example 147, 7-(piperidin-4-yl)-3-{3-[4-(trifluoromethyl)pyridin-2-yl]-1,2,4-oxadiazol-5-yl}pyrazolo[1,5-a]pyrimidin-5(4H)-one hydrochloride] | 7.42
28 | CCC(=O)N1CCN(C(=O)c2cnn3c(C4CCNCC4)cc(=O)[nH]c23)CC1 [Example 98, 7-(piperidin-4-yl)-3-[(4-propanoylpiperazin-1-yl)carbonyl]pyrazolo[1,5-a]pyrimidin-5(4H)-one hydrochloride] | 7.05
29 | O=C(OC1CCC1)c1cnn2c(C3CCNCC3)cc(=O)[nH]c12 [Example 356, Cyclobutyl 5-oxo-7-(piperidin-4-yl)-4,5-dihydropyrazolo[1,5-a]pyrimidine-3-carboxylate hydrochloride] | 7.64
30 | CC(F)(F)COC(=O)c1cnn2c(C3CCNCC3)cc(=O)[nH]c12 [Example 463, 2,2-difluoropropyl 5-oxo-7-(piperidin-4-yl)-4,5-dihydropyrazolo[1,5-a]pyrimidine-3-carboxylate hydrochloride] | 7.29
31 | O=c1cc(C2CCNCC2)n2ncc(-c3nnc(C4CCCCC4)o3)c2[nH]1 [Example 293, 3-(5-cyclohexyl-1,3,4-oxadiazol-2-yl)-7-(piperidin-4-yl)pyrazolo[1,5-a]pyrimidin-5 (4H)-one hydrochloride] | 7.51
32 | O=c1cc(C2CCNCC2)n2ncc(-c3cccc(C(F)(F)F)c3)c2[nH]1 [Example 58, 7-(Piperidin-4-yl)-3-[3-(trifluoromethyl)phenyl]pyrazolo[1,5-a]pyrimidin-5(4H)-one hydrochloride] | 7.80
33 | CCc1cnn2c(C3CCNCC3)cc(=O)[nH]c12 [Example 265, 3-ethyl-7-(piperidin-4-yl)pyrazolo[1,5-a]pyrimidin-5(4H)-one hydrochloride] | 6.47
34 | O=c1cc(C2CCNCC2)n2ncc(-c3nnc(CN4CCCCC4)o3)c2[nH]1 [Example 291, 7-(piperidin-4-yl)-3-[5-(piperidin-1-ylmethyl)-1,3,4-oxadiazol-2-yl]pyrazolo[1,5-a]pyrimidin-5(4H)-one hydrochloride] | 7.07
35 | CCCN(CC1CC1)C(=O)c1c(C)nn2c(C3CCNCC3)cc(=O)[nH]c12 [Example 406, N-(cyclopropyl-methyl)-2-methyl-5-oxo-7-(piperidin-4-yl)-N-propyl-4,5-dihydropyrazolo [1,5-a]pyrimidine-3-carboxamide hydrochloride] | 7.43
